Laboratory results published in PubChem BioAssay (NCI).
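96-well plates; 48 h exposure; 5 concentrations. Endpoints by linear interpolation between flanking doses. Not reached: highest tested concentration assigned. GI50 = concentration required for 50% inhibition of growth. At the TGI there is no net growth.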

Tests used:
Assay in all cases: DTP human tumour cell line panel, 48 h
SK-MEL-28 melanoma = test system: SK-MEL-28 melanoma
EKVX NSCLC = test system: EKVX NSCLC
HT29 colon = test system: HT29 colon
NCI-H460 lung = test system: NCI-H460 lung
MDA-MB-435 = test system: MDA-MB-435
RXF 393 renal = test system: RXF 393 renal
CCRF-CEM leukemia = test system: CCRF-CEM leukemia
NCI-H23 lung = test system: NCI-H23 lung
T-47D breast = test system: T-47D breast
SK-OV-3 ovarian = test system: SK-OV-3 ovarian
HOP-92 NSCLC = test system: HOP-92 NSCLC
COLO 205 colon = test system: COLO 205 colon
HCT-15 colon = test system: HCT-15 colon
KM12 colon = test system: KM12 colon
A549 NSCLC = test system: A549 NSCLC
LOX IMVI melanoma = test system: LOX IMVI melanoma
M14 melanoma = test system: M14 melanoma
A498 renal = test system: A498 renal
SK-MEL-5 melanoma = test system: SK-MEL-5 melanoma
OVCAR-5 ovarian = test system: OVCAR-5 ovarian
RPMI-8226 leukemia = test system: RPMI-8226 leukemia
PC-3 prostate = test system: PC-3 prostate
SR leukemia = test system: SR leukemia
MALME-3M melanoma = test system: MALME-3M melanoma
OVCAR-3 ovarian = test system: OVCAR-3 ovarian
HL-60(TB) leukemia = test system: HL-60(TB) leukemia
SF-295 CNS = test system: SF-295 CNS
NCI-H226 lung = test system: NCI-H226 lung
UO-31 renal = test system: UO-31 renal
SK-MEL-2 melanoma = test system: SK-MEL-2 melanoma
SF-268 CNS = test system: SF-268 CNS
SNB-19 CNS = test system: SNB-19 CNS
HS 578T breast = test system: HS 578T breast
TK-10 renal = test system: TK-10 renal
ACHN renal = test system: ACHN renal
CAKI-1 renal = test system: CAKI-1 renal
DU-145 prostate = test system: DU-145 prostate
SW-620 colon = test system: SW-620 colon
UACC-62 melanoma = test system: UACC-62 melanoma
K-562 leukemia = test system: K-562 leukemia
SN12C renal = test system: SN12C renal
NCI-H522 lung = test system: NCI-H522 lung
OVCAR-4 ovarian = test system: OVCAR-4 ovarian
MDA-MB-231 breast = test system: MDA-MB-231 breast
U251 CNS = test system: U251 CNS
HCT-116 colon = test system: HCT-116 colon
SNB-75 CNS = test system: SNB-75 CNS
HOP-62 NSCLC = test system: HOP-62 NSCLC
HCC-2998 colon = test system: HCC-2998 colon
OVCAR-8 ovarian = test system: OVCAR-8 ovarian
BT-549 breast = test system: BT-549 breast
MCF7 breast = test system: MCF7 breast
UACC-257 melanoma = test system: UACC-257 melanoma
MOLT-4 leukemia = test system: MOLT-4 leukemia
786-0 renal = test system: 786-0 renal
NCI/ADR-RES ovarian = test system: NCI/ADR-RES ovarian
SF-539 CNS = test system: SF-539 CNS

Question: Which GI50 (SK-MEL-28 melanoma) does the source give for `CCN(CC)CCCC(C)Nc1c2ccc(Cl)cc2nc2ccc(O)cc12` (centres undefined) here?
Answer: 1.6 µM

Question: What about the TGI (SK-MEL-28 melanoma) of the same compound?
Answer: 2.98 µM

Question: What about the GI50 (EKVX NSCLC) of the same compound?
Answer: 2.94 µM

Question: And the TGI (EKVX NSCLC)?
Answer: 11.6 µM

Question: What about the GI50 (HT29 colon) of the same compound?
Answer: 1.22 µM

Question: What about the TGI (HT29 colon) of the same compound?
Answer: 5.39 µM

Question: And the GI50 (NCI-H460 lung)?
Answer: 1.38 µM

Question: What about the TGI (NCI-H460 lung) of the same compound?
Answer: 3.84 µM

Question: And the GI50 (MDA-MB-435)?
Answer: 1.77 µM

Question: What about the TGI (MDA-MB-435) of the same compound?
Answer: 3.32 µM

Question: What about the GI50 (RXF 393 renal) of the same compound?
Answer: 1.61 µM

Question: What about the TGI (RXF 393 renal) of the same compound?
Answer: 4.27 µM

Question: And the GI50 (CCRF-CEM leukemia)?
Answer: 3.48 µM

Question: What about the TGI (CCRF-CEM leukemia) of the same compound?
Answer: 28.9 µM

Question: What about the GI50 (NCI-H23 lung) of the same compound?
Answer: 3.18 µM

Question: And the TGI (NCI-H23 lung)?
Answer: 13.6 µM

Question: And the GI50 (T-47D breast)?
Answer: 3 µM

Question: What about the TGI (T-47D breast) of the same compound?
Answer: 11.6 µM

Question: What about the GI50 (SK-OV-3 ovarian) of the same compound?
Answer: 3.12 µM

Question: What about the TGI (SK-OV-3 ovarian) of the same compound?
Answer: 16 µM

Question: And the GI50 (HOP-92 NSCLC)?
Answer: 2.05 µM

Question: What about the TGI (HOP-92 NSCLC) of the same compound?
Answer: 12 µM

Question: And the GI50 (COLO 205 colon)?
Answer: 1.17 µM

Question: And the TGI (COLO 205 colon)?
Answer: 2.63 µM

Question: What about the GI50 (HCT-15 colon) of the same compound?
Answer: 2.98 µM

Question: What about the TGI (HCT-15 colon) of the same compound?
Answer: 11 µM

Question: And the GI50 (KM12 colon)?
Answer: 2.39 µM

Question: And the TGI (KM12 colon)?
Answer: 10.5 µM

Question: What about the GI50 (A549 NSCLC) of the same compound?
Answer: 1.47 µM

Question: What about the TGI (A549 NSCLC) of the same compound?
Answer: 3.67 µM

Question: And the GI50 (LOX IMVI melanoma)?
Answer: 1.6 µM

Question: What about the TGI (LOX IMVI melanoma) of the same compound?
Answer: 3.22 µM

Question: What about the GI50 (M14 melanoma) of the same compound?
Answer: 1.56 µM

Question: And the TGI (M14 melanoma)?
Answer: 2.99 µM

Question: And the GI50 (A498 renal)?
Answer: 0.457 µM

Question: What about the TGI (A498 renal) of the same compound?
Answer: 18.2 µM

Question: What about the GI50 (SK-MEL-5 melanoma) of the same compound?
Answer: 1.73 µM

Question: What about the TGI (SK-MEL-5 melanoma) of the same compound?
Answer: 3.12 µM

Question: And the GI50 (OVCAR-5 ovarian)?
Answer: 2.21 µM

Question: And the TGI (OVCAR-5 ovarian)?
Answer: 7.78 µM

Question: And the GI50 (RPMI-8226 leukemia)?
Answer: 2.4 µM

Question: And the TGI (RPMI-8226 leukemia)?
Answer: 6.76 µM

Question: And the GI50 (PC-3 prostate)?
Answer: 3.58 µM

Question: What about the TGI (PC-3 prostate) of the same compound?
Answer: 18.5 µM

Question: What about the GI50 (SR leukemia) of the same compound?
Answer: 2.07 µM

Question: What about the TGI (SR leukemia) of the same compound?
Answer: 7.11 µM

Question: And the GI50 (MALME-3M melanoma)?
Answer: 1.42 µM

Question: And the TGI (MALME-3M melanoma)?
Answer: 2.87 µM

Question: What about the GI50 (OVCAR-3 ovarian) of the same compound?
Answer: 2.05 µM

Question: What about the TGI (OVCAR-3 ovarian) of the same compound?
Answer: 5.93 µM

Question: What about the GI50 (HL-60(TB) leukemia) of the same compound?
Answer: 2.06 µM

Question: And the TGI (HL-60(TB) leukemia)?
Answer: 6.25 µM

Question: And the GI50 (SF-295 CNS)?
Answer: 1.73 µM

Question: What about the TGI (SF-295 CNS) of the same compound?
Answer: 3.76 µM

Question: What about the GI50 (NCI-H226 lung) of the same compound?
Answer: 2.53 µM

Question: And the TGI (NCI-H226 lung)?
Answer: 8.99 µM

Question: What about the GI50 (UO-31 renal) of the same compound?
Answer: 1.18 µM

Question: And the TGI (UO-31 renal)?
Answer: 2.65 µM

Question: And the GI50 (SK-MEL-2 melanoma)?
Answer: 4.78 µM

Question: What about the TGI (SK-MEL-2 melanoma) of the same compound?
Answer: 19.9 µM

Question: And the GI50 (SF-268 CNS)?
Answer: 2.04 µM

Question: And the TGI (SF-268 CNS)?
Answer: 11.3 µM

Question: What about the GI50 (SNB-19 CNS) of the same compound?
Answer: 3.37 µM

Question: And the TGI (SNB-19 CNS)?
Answer: 16.3 µM

Question: And the GI50 (HS 578T breast)?
Answer: 1.68 µM

Question: What about the TGI (HS 578T breast) of the same compound?
Answer: 5.55 µM

Question: What about the GI50 (TK-10 renal) of the same compound?
Answer: 1.74 µM

Question: And the TGI (TK-10 renal)?
Answer: 3.91 µM

Question: What about the GI50 (ACHN renal) of the same compound?
Answer: 1.17 µM

Question: And the TGI (ACHN renal)?
Answer: 2.81 µM

Question: And the GI50 (CAKI-1 renal)?
Answer: 2.25 µM

Question: What about the TGI (CAKI-1 renal) of the same compound?
Answer: 6.1 µM

Question: What about the GI50 (DU-145 prostate) of the same compound?
Answer: 2.26 µM

Question: And the TGI (DU-145 prostate)?
Answer: 8.39 µM

Question: What about the GI50 (SW-620 colon) of the same compound?
Answer: 1.16 µM

Question: And the TGI (SW-620 colon)?
Answer: 4.13 µM

Question: And the GI50 (UACC-62 melanoma)?
Answer: 1.89 µM

Question: And the TGI (UACC-62 melanoma)?
Answer: 4.02 µM

Question: And the GI50 (K-562 leukemia)?
Answer: 2.22 µM

Question: And the TGI (K-562 leukemia)?
Answer: 8.94 µM

Question: What about the GI50 (SN12C renal) of the same compound?
Answer: 2.59 µM

Question: What about the TGI (SN12C renal) of the same compound?
Answer: 16.6 µM

Question: What about the GI50 (NCI-H522 lung) of the same compound?
Answer: 1.28 µM

Question: What about the TGI (NCI-H522 lung) of the same compound?
Answer: 3.71 µM

Question: What about the GI50 (OVCAR-4 ovarian) of the same compound?
Answer: 1.88 µM

Question: What about the TGI (OVCAR-4 ovarian) of the same compound?
Answer: 4.66 µM

Question: What about the GI50 (MDA-MB-231 breast) of the same compound?
Answer: 2 µM

Question: And the TGI (MDA-MB-231 breast)?
Answer: 5.39 µM

Question: And the GI50 (U251 CNS)?
Answer: 2.49 µM

Question: And the TGI (U251 CNS)?
Answer: 11.4 µM

Question: And the GI50 (HCT-116 colon)?
Answer: 1.13 µM

Question: And the TGI (HCT-116 colon)?
Answer: 3.08 µM

Question: And the GI50 (SNB-75 CNS)?
Answer: 1.62 µM

Question: What about the TGI (SNB-75 CNS) of the same compound?
Answer: 3.86 µM

Question: And the GI50 (HOP-62 NSCLC)?
Answer: 1.49 µM

Question: What about the TGI (HOP-62 NSCLC) of the same compound?
Answer: 5.32 µM

Question: And the GI50 (HCC-2998 colon)?
Answer: 2.44 µM

Question: And the TGI (HCC-2998 colon)?
Answer: 6.97 µM

Question: And the GI50 (OVCAR-8 ovarian)?
Answer: 1.73 µM

Question: And the TGI (OVCAR-8 ovarian)?
Answer: 11.7 µM

Question: And the GI50 (BT-549 breast)?
Answer: 5.38 µM

Question: And the TGI (BT-549 breast)?
Answer: 18.3 µM

Question: What about the GI50 (MCF7 breast) of the same compound?
Answer: 1.4 µM

Question: What about the TGI (MCF7 breast) of the same compound?
Answer: 5.48 µM

Question: And the GI50 (UACC-257 melanoma)?
Answer: 1.7 µM

Question: And the TGI (UACC-257 melanoma)?
Answer: 3.31 µM

Question: What about the GI50 (MOLT-4 leukemia) of the same compound?
Answer: 1.31 µM

Question: What about the TGI (MOLT-4 leukemia) of the same compound?
Answer: 13.6 µM

Question: What about the GI50 (786-0 renal) of the same compound?
Answer: 2.77 µM

Question: What about the TGI (786-0 renal) of the same compound?
Answer: 11.9 µM

Question: And the GI50 (NCI/ADR-RES ovarian)?
Answer: 11 µM

Question: What about the TGI (NCI/ADR-RES ovarian) of the same compound?
Answer: 26.4 µM

Question: What about the GI50 (SF-539 CNS) of the same compound?
Answer: 1.63 µM

Question: What about the TGI (SF-539 CNS) of the same compound?
Answer: 3.14 µM
